From ChEMBL document CHEMBL4732242 (Eur J Med Chem, 2021) come the findings set out here.

Assay [1] has as its system MCF7. In words: Cytotoxicity against human MCF7 cells assessed as reduction in cell viability incubated for 48 hrs by CyQuant assay. The assay is classed as functional, cell-based. The following applies: MCF7, 48 h.
For assay [2], the target named is T1, Dual specificity protein kinase CLK1 (Homo sapiens, UniProt P49759). Put plainly: Inhibition of human recombinant CLK1 using ERMRPRKRQGSVR substrate by radiometric scintillation assay.
The target of assay [3] is T2, Dual specificity protein kinase CLK2 (Homo sapiens, UniProt P49760). In words: Inhibition of human recombinant CLK2 using YRRAAVPPSPSLSR substrate by radiometric scintillation assay.
Assay [4] deals with T3, Dual specificity protein kinase CLK3 (Homo sapiens, UniProt P49761). In words: Inhibition of human full length recombinant CLK3 using ERMRPRKRQGSVR substrate by radiometric scintillation assay.
Assay [5] concerns the target T4, Dual specificity protein kinase CLK4 (Homo sapiens, UniProt Q9HAZ1). Put plainly: Inhibition of human recombinant CLK4 using YRRAAVPPSPSLS substrate by radiometric scintillation assay.
Assay [6] addresses T5, Dual specificity tyrosine-phosphorylation-regulated kinase 1A (Homo sapiens, UniProt Q13627). In words: Inhibition of human full length recombinant DYRK1A using RRRFRPASPLRGPP substrate by radiometric scintillation assay.
For assay [7], the target named is T6, Dual specificity tyrosine-phosphorylation-regulated kinase 1B (Homo sapiens, UniProt Q9Y463). Put plainly: Inhibition of human full length recombinant DYRK1B using RRRFRPASPLRGPP substrate by radiometric scintillation assay.
For assay [8], the target named is T7, Dual specificity tyrosine-phosphorylation-regulated kinase 2 (Homo sapiens, UniProt Q92630).
T7 sequence (Q92630 whole entry): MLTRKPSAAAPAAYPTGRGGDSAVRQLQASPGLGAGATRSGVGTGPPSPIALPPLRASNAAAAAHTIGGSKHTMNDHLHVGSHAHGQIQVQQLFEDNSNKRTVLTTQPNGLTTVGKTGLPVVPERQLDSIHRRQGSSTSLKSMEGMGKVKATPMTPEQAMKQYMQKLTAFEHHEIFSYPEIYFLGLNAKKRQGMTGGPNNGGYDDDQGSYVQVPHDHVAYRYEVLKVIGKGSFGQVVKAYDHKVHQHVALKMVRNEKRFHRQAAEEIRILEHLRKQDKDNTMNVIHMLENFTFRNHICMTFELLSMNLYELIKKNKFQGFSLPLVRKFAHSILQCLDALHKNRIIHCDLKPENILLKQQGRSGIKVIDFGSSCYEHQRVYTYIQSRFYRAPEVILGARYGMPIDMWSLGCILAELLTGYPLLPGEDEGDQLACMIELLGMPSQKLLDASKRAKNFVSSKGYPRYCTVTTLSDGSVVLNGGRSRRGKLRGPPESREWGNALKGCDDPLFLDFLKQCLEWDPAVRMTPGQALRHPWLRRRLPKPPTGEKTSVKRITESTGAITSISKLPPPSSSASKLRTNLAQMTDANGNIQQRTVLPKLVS
In words: Inhibition of human full length recombinant DYRK2 using casein substrate by radiometric scintillation assay.

Assay [9] has as its target T8, Homeodomain-interacting protein kinase 1 (Homo sapiens, UniProt Q86Z02). Put plainly: Inhibition of human recombinant HIPK1 using myelin substrate by radiometric scintillation assay.
Assay [10] concerns the target T9, Homeodomain-interacting protein kinase 2 (Homo sapiens, UniProt Q9H2X6). In words: Inhibition of human recombinant HIPK2 using myelin substrate by radiometric scintillation assay.
In assay [11] the target is T10, Homeodomain-interacting protein kinase 3 (Homo sapiens, UniProt Q9H422). Put plainly: Inhibition of human recombinant HIPK3 using myelin substrate by radiometric scintillation assay.
Assay [12] addresses T1, Dual specificity protein kinase CLK1. In words: Inhibition of CLK1 (unknown origin) by NanoBRET cellular target engagement assay. A general note: In BRET a luciferase serves as donor, and the signal depends on an acceptor being close.
The target in assay [13] is T2, Dual specificity protein kinase CLK2. Put plainly: Inhibition of CLK2 (unknown origin) by NanoBRET cellular target engagement assay.
Assay [14] addresses T3, Dual specificity protein kinase CLK3. Put plainly: Inhibition of CLK3 (unknown origin) by NanoBRET cellular target engagement assay.
Assay [15] concerns the target T4, Dual specificity protein kinase CLK4. Put plainly: Inhibition of CLK4 (unknown origin) by NanoBRET cellular target engagement assay.
In assay [16] the target is T5, Dual specificity tyrosine-phosphorylation-regulated kinase 1A. Put plainly: Inhibition of DYRK1A (unknown origin) by NanoBRET cellular target engagement assay.
The target in assay [17] is T6, Dual specificity tyrosine-phosphorylation-regulated kinase 1B. Put plainly: Inhibition of DYRK1B (unknown origin) by NanoBRET cellular target engagement assay.
For assay [18], the target named is T7, Dual specificity tyrosine-phosphorylation-regulated kinase 2. In words: Inhibition of DYRK2 (unknown origin) by NanoBRET cellular target engagement assay.
In assay [19] the target is Mitogen-activated protein kinase kinase kinase 9 (Homo sapiens, UniProt P80192). Put plainly: Inhibition of MLK1 (unknown origin) by NanoBRET cellular target engagement assay.
Assay [20] has as its target Mitogen-activated protein kinase kinase kinase 10 (Homo sapiens, UniProt Q02779). Put plainly: Inhibition of MLK2 (unknown origin) by NanoBRET cellular target engagement assay.
The target of assay [21] is Mitogen-activated protein kinase kinase kinase 11 (Homo sapiens, UniProt Q16584). Put plainly: Inhibition of MLK3 (unknown origin) by NanoBRET cellular target engagement assay.
For assay [22], the target named is Cyclin-dependent kinase-like 3 (Homo sapiens, UniProt Q8IVW4). In words: Inhibition of CDKL3 (unknown origin) by NanoBRET cellular target engagement assay.
Assay [23] addresses T8, Homeodomain-interacting protein kinase 1. Put plainly: Inhibition of HIPK1 (unknown origin).
For assay [24], the target named is T10, Homeodomain-interacting protein kinase 3. In words: Inhibition of HIPK3 (unknown origin).
Assay [25] has as its target T11, Homeodomain-interacting protein kinase 4 (Homo sapiens, UniProt Q8NE63).
T11 sequence (Q8NE63 whole entry): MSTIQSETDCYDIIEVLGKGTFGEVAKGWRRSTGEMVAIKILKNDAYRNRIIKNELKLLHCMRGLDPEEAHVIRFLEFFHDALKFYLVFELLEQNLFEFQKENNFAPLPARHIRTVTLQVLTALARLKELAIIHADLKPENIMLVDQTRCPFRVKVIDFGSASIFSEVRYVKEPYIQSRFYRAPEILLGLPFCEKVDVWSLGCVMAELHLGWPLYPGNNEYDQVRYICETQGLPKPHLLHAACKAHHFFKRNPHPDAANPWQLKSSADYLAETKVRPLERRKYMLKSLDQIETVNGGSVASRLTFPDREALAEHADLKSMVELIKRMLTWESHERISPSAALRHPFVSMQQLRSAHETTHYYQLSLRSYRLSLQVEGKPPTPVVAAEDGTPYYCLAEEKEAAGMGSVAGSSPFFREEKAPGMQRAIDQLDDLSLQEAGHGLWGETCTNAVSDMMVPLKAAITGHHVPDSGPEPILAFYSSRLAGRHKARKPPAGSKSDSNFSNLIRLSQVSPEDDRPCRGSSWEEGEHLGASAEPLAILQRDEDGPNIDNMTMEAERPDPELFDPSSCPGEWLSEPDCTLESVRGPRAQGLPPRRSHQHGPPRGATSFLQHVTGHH
In words: Inhibition of HIPK4 (unknown origin).

In assay [26] the target is T9, Homeodomain-interacting protein kinase 2. Put plainly: Inhibition of HIPK2 (unknown origin) by selectscreen kinase assay.
For assay [27] the target is unchanged. Put plainly: Inhibition of HIPK2 (unknown origin).

A word on the pIC50: it is the IC50 on a negative log10 scale, so that one unit is a factor of ten.

pIC50: −log10 of the molar value.

T2 sequence (P49760 whole entry): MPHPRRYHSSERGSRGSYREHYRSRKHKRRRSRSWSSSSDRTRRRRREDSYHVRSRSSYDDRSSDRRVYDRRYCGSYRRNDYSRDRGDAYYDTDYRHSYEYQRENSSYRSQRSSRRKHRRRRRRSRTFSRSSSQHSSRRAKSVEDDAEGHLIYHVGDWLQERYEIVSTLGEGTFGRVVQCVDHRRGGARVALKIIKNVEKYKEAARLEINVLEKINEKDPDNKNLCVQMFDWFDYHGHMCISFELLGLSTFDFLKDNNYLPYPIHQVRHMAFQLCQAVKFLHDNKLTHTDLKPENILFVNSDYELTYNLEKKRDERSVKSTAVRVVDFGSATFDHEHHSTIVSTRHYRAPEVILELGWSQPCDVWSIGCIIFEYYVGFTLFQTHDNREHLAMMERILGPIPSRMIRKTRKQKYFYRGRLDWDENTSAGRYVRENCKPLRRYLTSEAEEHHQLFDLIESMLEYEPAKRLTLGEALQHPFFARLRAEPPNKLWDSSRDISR
T6 sequence (Q9Y463 whole entry): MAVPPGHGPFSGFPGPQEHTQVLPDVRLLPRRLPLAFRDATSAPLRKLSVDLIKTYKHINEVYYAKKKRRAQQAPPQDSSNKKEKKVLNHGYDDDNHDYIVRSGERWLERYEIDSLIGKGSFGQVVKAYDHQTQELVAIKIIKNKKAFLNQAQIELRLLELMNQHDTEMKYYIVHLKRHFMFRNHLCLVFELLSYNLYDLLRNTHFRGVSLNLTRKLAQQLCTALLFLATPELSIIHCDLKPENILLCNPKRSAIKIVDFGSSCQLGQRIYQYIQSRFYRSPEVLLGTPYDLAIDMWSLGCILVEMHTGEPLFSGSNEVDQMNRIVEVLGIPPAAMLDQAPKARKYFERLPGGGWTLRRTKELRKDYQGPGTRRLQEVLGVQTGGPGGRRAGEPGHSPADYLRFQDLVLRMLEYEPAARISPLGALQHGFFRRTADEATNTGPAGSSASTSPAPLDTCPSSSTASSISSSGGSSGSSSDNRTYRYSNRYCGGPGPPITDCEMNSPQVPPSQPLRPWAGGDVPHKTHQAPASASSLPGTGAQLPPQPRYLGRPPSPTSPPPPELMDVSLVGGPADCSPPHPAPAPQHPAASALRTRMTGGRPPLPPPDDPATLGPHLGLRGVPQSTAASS
T9 sequence (Q9H2X6 whole entry): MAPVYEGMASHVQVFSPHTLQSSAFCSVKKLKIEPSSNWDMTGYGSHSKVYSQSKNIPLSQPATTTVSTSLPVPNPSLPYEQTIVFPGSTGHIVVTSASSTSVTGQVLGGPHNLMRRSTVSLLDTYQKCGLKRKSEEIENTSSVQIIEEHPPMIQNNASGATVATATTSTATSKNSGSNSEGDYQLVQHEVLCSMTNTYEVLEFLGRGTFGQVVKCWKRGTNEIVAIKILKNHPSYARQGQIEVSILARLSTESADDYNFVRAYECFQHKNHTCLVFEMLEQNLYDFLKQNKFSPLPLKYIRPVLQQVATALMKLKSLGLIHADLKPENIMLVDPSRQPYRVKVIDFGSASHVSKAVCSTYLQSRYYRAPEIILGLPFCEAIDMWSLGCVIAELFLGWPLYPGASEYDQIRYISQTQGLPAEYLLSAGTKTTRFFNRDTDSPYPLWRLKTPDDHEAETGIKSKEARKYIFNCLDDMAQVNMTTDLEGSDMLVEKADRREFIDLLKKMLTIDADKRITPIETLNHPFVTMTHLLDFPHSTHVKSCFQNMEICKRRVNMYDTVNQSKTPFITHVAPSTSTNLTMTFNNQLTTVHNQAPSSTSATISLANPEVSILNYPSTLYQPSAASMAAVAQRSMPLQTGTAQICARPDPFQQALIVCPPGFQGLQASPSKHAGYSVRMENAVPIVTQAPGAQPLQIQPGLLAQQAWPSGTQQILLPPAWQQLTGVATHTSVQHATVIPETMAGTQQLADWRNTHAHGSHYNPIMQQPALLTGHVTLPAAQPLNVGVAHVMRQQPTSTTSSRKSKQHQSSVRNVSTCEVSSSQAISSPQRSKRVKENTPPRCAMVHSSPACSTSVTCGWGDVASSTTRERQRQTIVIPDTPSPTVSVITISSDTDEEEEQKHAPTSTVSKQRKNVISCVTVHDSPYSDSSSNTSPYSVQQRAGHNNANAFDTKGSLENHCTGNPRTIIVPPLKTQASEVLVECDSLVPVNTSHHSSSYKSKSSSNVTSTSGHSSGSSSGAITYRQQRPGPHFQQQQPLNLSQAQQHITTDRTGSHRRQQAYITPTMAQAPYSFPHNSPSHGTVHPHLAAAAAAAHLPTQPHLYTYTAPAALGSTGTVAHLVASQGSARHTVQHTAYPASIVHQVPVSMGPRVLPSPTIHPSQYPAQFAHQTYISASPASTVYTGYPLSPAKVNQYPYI
Sequence of Mitogen-activated protein kinase kinase kinase 10 (Q02779 whole entry): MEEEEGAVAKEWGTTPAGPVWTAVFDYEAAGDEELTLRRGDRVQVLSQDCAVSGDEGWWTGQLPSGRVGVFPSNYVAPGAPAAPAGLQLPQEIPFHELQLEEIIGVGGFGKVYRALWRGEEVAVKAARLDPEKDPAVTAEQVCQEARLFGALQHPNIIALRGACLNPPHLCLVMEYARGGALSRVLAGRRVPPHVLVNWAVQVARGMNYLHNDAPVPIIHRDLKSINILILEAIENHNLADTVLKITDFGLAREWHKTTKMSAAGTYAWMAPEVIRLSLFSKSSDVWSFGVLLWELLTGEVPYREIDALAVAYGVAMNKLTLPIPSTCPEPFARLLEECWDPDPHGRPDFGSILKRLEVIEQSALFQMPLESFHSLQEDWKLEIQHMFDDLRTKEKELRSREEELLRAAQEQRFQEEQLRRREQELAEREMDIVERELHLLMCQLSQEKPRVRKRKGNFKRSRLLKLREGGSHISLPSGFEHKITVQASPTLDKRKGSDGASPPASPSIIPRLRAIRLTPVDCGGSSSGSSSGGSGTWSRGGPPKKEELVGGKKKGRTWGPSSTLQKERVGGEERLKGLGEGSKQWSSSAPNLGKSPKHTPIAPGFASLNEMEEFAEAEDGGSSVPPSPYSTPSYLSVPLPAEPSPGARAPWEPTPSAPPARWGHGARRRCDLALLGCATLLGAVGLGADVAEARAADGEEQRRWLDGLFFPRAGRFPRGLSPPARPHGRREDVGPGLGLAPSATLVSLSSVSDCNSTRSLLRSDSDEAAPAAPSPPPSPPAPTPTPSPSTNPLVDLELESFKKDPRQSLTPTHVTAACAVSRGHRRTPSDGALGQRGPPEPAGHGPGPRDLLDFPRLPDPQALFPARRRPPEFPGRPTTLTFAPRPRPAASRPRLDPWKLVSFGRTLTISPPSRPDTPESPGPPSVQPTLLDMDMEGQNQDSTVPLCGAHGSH
T10 sequence (Q9H422 whole entry): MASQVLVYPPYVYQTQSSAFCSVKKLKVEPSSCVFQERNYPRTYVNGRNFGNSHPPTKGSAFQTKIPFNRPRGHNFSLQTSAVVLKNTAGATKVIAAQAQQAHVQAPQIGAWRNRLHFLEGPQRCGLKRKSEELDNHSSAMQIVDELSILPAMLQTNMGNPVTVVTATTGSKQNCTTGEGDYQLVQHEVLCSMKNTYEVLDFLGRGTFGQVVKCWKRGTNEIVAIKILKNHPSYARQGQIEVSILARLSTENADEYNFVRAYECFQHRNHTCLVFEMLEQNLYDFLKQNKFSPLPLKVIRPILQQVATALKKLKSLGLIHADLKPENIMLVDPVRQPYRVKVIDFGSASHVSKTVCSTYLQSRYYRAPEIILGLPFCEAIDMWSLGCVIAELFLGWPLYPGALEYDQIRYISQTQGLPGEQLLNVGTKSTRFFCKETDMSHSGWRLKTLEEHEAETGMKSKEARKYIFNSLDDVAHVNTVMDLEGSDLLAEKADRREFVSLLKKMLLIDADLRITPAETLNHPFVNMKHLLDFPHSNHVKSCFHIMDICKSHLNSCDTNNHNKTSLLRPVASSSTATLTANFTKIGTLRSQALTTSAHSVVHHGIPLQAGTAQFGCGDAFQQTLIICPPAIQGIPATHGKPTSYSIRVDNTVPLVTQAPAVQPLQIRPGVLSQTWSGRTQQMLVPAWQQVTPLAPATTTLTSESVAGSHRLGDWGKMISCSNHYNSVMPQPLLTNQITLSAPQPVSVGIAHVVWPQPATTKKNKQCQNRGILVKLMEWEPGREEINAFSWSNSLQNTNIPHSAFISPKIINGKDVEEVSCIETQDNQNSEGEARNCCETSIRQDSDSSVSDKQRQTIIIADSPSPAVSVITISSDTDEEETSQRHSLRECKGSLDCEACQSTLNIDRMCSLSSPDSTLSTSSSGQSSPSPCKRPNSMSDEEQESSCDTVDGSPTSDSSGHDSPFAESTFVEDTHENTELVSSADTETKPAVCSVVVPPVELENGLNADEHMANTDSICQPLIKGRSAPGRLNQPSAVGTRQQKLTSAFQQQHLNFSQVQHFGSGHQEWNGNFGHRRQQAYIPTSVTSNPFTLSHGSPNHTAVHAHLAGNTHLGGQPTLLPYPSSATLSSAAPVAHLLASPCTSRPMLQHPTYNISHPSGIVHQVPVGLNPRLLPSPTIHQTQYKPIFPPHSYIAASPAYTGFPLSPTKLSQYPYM
T3 sequence (P49761 whole entry): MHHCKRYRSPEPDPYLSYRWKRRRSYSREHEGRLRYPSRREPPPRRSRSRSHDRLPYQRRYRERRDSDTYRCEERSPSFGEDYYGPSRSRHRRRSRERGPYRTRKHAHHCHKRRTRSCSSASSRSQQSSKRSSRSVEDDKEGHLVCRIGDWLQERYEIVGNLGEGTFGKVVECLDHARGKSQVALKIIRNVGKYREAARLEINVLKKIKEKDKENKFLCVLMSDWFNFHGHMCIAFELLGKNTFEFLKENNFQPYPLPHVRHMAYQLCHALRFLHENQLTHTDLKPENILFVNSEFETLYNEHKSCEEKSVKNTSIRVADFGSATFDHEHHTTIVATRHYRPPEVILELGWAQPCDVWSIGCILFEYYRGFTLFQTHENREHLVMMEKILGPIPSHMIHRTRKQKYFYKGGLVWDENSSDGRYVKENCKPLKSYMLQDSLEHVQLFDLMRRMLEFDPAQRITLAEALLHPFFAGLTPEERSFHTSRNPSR

Regarding `Cn1cc(-c2ccc3occ(-c4cccc(-c5ccncc5)c4)c3n2)cn1`, the pIC50 in assay [1] was 5.34.

For the molecule `Cn1cc(-c2cccc(-c3coc4ccc(-c5cnn(C)c5)nc34)c2)cn1`, the pIC50 is 7.74 in [2]; 7.80 in assay [3]; under 5.52 in [4]; 7.77 in [5]; 6.83 in assay [6]; 5.62 in assay [7]. Further, the pIC50 in assay [8] is 6.11; in assay [9], 6.68; in assay [10] it was 7.15; in assay [11], 6.90; in assay [1], under 4.00.

Consider `CC(C)(C)c1ccc(-c2coc3ccc(-c4cn[nH]n4)nc23)cc1`, for which the negative logarithm of the IC50 (pIC50) in assay [12] is under 4.30; in assay [2], under 5.52; in [3], under 5.52; in [4], under 5.52; in [5], under 5.52; in assay [6] it was under 5.52. Further, the negative-log IC50 (pIC50) in assay [7] is under 5.52; in assay [8], under 5.52; in assay [9] it was 6.55; in assay [10], 6.91; in assay [11] it was 6.55; in assay [13] it was under 4.30. The pIC50 in assay [14] was under 4.30; in assay [15], 4.40; in assay [16], under 4.30; in assay [17], under 4.30; in [18] it was under 4.30; in assay [19], 4.82. Also, the pIC50 in assay [20], in assay [21] and in [22] was under 4.30 throughout.

Turning to `Cc1[nH]c(/C=C2\C(=O)Nc3ccc(S(=O)(=O)Cc4c(Cl)cccc4Cl)cc32)c(C)c1C(=O)N1CCC[C@@H]1CN1CCCC1` [PHA-665752], the pIC50 in assay [23], in [24] and in assay [25] was 7.00 each time.

With `CN(C)C[C@@H]1CCn2cc(c3ccccc32)C2=C(C(=O)NC2=O)c2cn(c3ccccc23)CCO1` [RUBOXISTAURIN], in assay [24], the pIC50 is 7.00.

In [26], `O=C1NC(=O)/C(=C\c2c[nH]c(=O)c(-c3ccc(N4CCNCC4)nc3)c2)S1` had a pIC50 of 7.13.

With `COC(=N)c1nc2ccc3ncnc(Nc4ccc(OC)cc4F)c3c2s1`, the pIC50 in [12], in assay [13], in [14], in assay [15], in [18] and in assay [19] was under 5.52 in each case. In assay [20], the pIC50 is under 5.52.

Regarding `COc1cc2c(Oc3ccc(NC(=O)C4(C(=O)Nc5ccc(F)cc5)CC4)cc3F)ccnc2cc1OCCCN1CCOCC1` [FORETINIB], the pIC50 in [27] and in assay [24] was 7.00 in each case.

As to `CC(C)(C)c1ccc(-c2coc3ccc(-c4cn[nH]c4)nc23)cc1`, the pIC50 in assay [12] is under 4.30; in assay [2], 6.02; in assay [3], 5.85; in [4], under 5.52; in assay [5] it was 5.83; in assay [6], under 5.52. Further, the pIC50 is under 5.52 in [7]; under 5.52 in assay [8]; 6.61 in [9]; 6.92 in assay [10]; 6.32 in assay [11]; 4.74 in [13]. For the same molecule, the pIC50 in assay [14] is 4.37; in assay [15], 4.34; in assay [16], 4.37; in [17], under 4.30; in assay [18] it was under 4.30; in assay [19], under 4.30. Further, the negative logarithm of the IC50 (pIC50) in assay [20], in assay [21] and in [22] was under 4.30 throughout.

Take `O=C(Nc1c[nH]nc1-c1nc2cc(CN3CCOCC3)ccc2[nH]1)NC1CC1` [AT-9283]: the pIC50 was 6.24 in assay [18] and 5.96 in assay [22].

Turning to `Cn1cc(-c2ccc3occ(-c4cccc(-c5cn[nH]c5)c4)c3n2)cn1`, the negative logarithm of the IC50 (pIC50) was 7.80 in assay [2]; 7.43 in assay [3]; 5.80 in [4]; 7.72 in [5]; 6.86 in assay [6]; 5.88 in assay [7]. Moreover, the negative-log IC50 (pIC50) in [8] is under 5.52; in assay [9], 6.75; in assay [10] it was 6.99; in assay [11], 6.79; in assay [1] it was 4.52.

On to `Cn1cc(-c2ccc3occ(-c4cccc(-c5cc[nH]n5)c4)c3n2)cn1`, for which the pIC50 in assay [2] was 7.85; in assay [3], 7.80; in [4], 5.78; in [5], 7.82; in assay [6], 6.94; in assay [7], 5.72. The pIC50 in assay [8] was under 5.52; in [9], 6.90; in assay [10] it was 7.52; in [11], 6.89.
